Measurements: BindingDB's records for doi:10.1111/cbdd.12445 (Konkuk University, 2015)

The compounds below were run against Aurora kinase B (Homo sapiens, UniProt Q96GD4) (assay: Aurora B Kinase Assay).
Aurora kinase B, sequence (Q96GD4 whole entry): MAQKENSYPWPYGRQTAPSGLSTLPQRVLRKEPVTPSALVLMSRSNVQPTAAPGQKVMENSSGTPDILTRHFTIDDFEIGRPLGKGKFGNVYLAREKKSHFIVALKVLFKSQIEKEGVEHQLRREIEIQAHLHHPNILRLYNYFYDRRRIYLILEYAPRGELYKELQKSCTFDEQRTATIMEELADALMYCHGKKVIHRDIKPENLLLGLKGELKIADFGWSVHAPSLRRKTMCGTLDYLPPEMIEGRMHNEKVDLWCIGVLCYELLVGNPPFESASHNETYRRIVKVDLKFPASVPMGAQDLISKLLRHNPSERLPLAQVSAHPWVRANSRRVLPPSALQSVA

IC50 [µM] | Structure (SMILES)
17.8 | O=c1c(O)c(-c2ccccc2O)oc2cc(O)cc(O)c12 [3,5,7-trihydroxy-2-(2-hydroxyphenyl)chromen-4-one]
9.8 | O=c1c(O)c(-c2ccccc2)oc2cc(O)cc(O)c12 [norizalpinin]
11.1 | O=c1c(O)c(-c2ccc(O)c(O)c2)oc2c(O[C@@H]3O[C@H](CO)[C@@H](O)[C@H](O)[C@H]3O)c(O)cc(O)c12 [2-(3,4-dihydroxyphenyl)-3,5,7-trihydroxy-8-[(2S,3R,4S,5S,6R)-3,4,5-trihydroxy-6-(hydroxymethyl)oxan-2-yl]oxychromen-4-one]
3.89 | C[C@@H]1O[C@@H](Oc2c(-c3cc(O)c(O)c(O)c3)oc3cc(O)cc(O)c3c2=O)[C@H](O)[C@H](O)[C@H]1O [5,7-dihydroxy-3-[(2S,3R,4R,5R,6S)-3,4,5-trihydroxy-6-methyloxan-2-yl]oxy-2-(3,4,5-trihydroxyphenyl)chromen-4-one]
12.1 | O=c1cc(-c2ccc(O)cc2)oc2cc(O[C@@H]3O[C@H](CO)[C@@H](O)[C@H](O)[C@H]3O[C@@H]3OC[C@](O)(CO)[C@H]3O)cc(O)c12 [7-[(2S,3R,4S,5S,6R)-3-[(2S,3R,4R)-3,4-dihydroxy-4-(hydroxymethyl)oxolan-2-yl]oxy-4,5-dihydroxy-6-(hydroxymethyl)oxan-2-yl]oxy-5-hydroxy-2-(4-hydroxyphenyl)chromen-4-one]
29.4 | O=c1c(O)c(-c2ccc(O[C@@H]3O[C@H](CO)[C@@H](O)[C@H](O)[C@H]3O)c(O)c2)oc2cc(O)cc(O)c12
10.7 | O=c1c(O[C@@H]2O[C@H](CO)[C@@H](O)[C@H](O)[C@H]2O)c(-c2ccc(O)c(O)c2)oc2cc(O)cc(O)c12 [2-(3,4-dihydroxyphenyl)-5,7-dihydroxy-3-[(2S,3R,4S,5S,6R)-3,4,5-trihydroxy-6-(hydroxymethyl)oxan-2-yl]oxychromen-4-one]
4.71 | O=c1c(O)c(-c2ccc(O)cc2O)oc2cc(O)cc(O)c12 [2-(2,4-dihydroxyphenyl)-3,5,7-trihydroxychromen-4-one]
3.85 | O=c1cc(-c2ccc(O)cc2)oc2cc(O)c(O)c(O)c12 [5,6,7-trihydroxy-2-(4-hydroxyphenyl)-4H-chromen-4-one]
7.39 | COc1ccc(-c2oc3cc(O)cc(O)c3c(=O)c2O)cc1O [3,5,7-trihydroxy-2-(3-hydroxy-4-methoxyphenyl)-4H-chromen-4-one]
42.7 | COc1cc(-c2cc(=O)c3c(O)c(OC)c(OC)c(OC)c3o2)cc(OC)c1OC [5-hydroxy-6,7,8-trimethoxy-2-(3,4,5-trimethoxyphenyl)chromen-4-one]
4.03 | O=c1c(O)c(-c2ccc(O)cc2)oc2cc(O)cc(O)c12
2.85 | COc1cc(-c2oc3cc(O)ccc3c(=O)c2O)ccc1O [3,7-dihydroxy-2-(4-hydroxy-3-methoxyphenyl)chromen-4-one]
2.62 | O=c1c(O)c(-c2ccc(O)c(O)c2)oc2cc(O)c(O)c(O)c12 [2-(3,4-dihydroxyphenyl)-3,5,6,7-tetrahydroxy-4H-chromen-4-one]
5.31 | COc1ccc(-c2cc(=O)c3c(OC)c(OC)c(OC)cc3o2)cc1OC [2-(3,4-dimethoxyphenyl)-5,6,7-trimethoxy-4H-chromen-4-one]
4.29 | O=c1c(O)c(-c2ccccc2)oc2ccccc12 [3-hydroxy-2-phenyl-4H-chromen-4-one]
12.2 | O=C(O)[C@H]1O[C@@H](Oc2cc3oc(-c4ccccc4)cc(=O)c3c(O)c2O)[C@H](O)[C@@H](O)[C@@H]1O [(2S,3S,4S,5R,6S)-6-(5,6-dihydroxy-4-oxo-2-phenyl-4H-chromen-7-yloxy)-3,4,5-trihydroxy-tetrahydro-2H-pyran-2-carboxylic acid]
2.63 | O=c1c(O)c(-c2ccc(O)c(O)c2)oc2cc(O)ccc12 [2-(3,4-dihydroxyphenyl)-3,7-dihydroxy-chromen-4-one]
4.06 | O=c1cc(-c2ccccc2)oc2cc(O)c(O)c(O)c12

Structure (SMILES) | IC50 [µM]
COc1cc(-c2oc3cc(O)cc(O)c3c(=O)c2O)ccc1O | 4.34
O=c1c(O)c(-c2ccc(O)c(O)c2)oc2cc(O)cc(O)c12 [2-(3,4-dihydroxyphenyl)-3,5,7-trihydroxy-chromone;hydrate] | 3.96
O=c1c(O)c(-c2cc(O)c(O)c(O)c2)oc2cc(O)cc(O)c12 | 3.98
O=c1c(O)c(-c2ccc(O)c(O)c2)oc2c(O)c(O)cc(O)c12 | 4.1
O=c1cc(-c2ccc(O)cc2)oc2cc(O)cc(O)c12 [Naringenin, 18] | 3.96
O=c1cc(-c2ccc(O)c(O)c2)oc2cc(O)cc(O)c12 [2-(3,4-dihydroxyphenyl)-5,7-dihydroxy-4H-chromen-4-one] | 3.88
